Read-outs that look alike come from different tables or passages of the source. Where a SMILES comes first, the peptide text is derived from it. Bridges are numbered along the chain shown (N, C = ends). [ ]: non-standard residue; d: D form. S5 = C=CCCC[C@](C)(N)C(=O)O; Nle = CCCC[C@H](N)C(=O)O
Key:
[1] = biological target: T1, trypsin from porcine pancreas (Sus scrofa, UniProt P00761); assay: Proteolytic stability against trypsin; type: in vitro ADME; details: for half-life at 55.5 μM: pig, isolated enzyme trypsin
T1 construct: purchased Sigma; host or cells: porcine pancreas
T1 sequence (P00761 9-231): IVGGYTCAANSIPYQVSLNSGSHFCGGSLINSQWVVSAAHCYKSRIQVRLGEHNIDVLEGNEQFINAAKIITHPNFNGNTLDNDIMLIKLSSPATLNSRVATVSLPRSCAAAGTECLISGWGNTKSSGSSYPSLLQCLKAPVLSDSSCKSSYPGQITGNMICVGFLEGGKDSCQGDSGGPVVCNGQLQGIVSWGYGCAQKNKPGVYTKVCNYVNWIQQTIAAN
Protocol: (§1) Figure 4. Biophysical analysis of stapled peptides. A, amino acid sequence alignment of the targeted TM regions and disrupting peptides. Cys residues are in the reduced state. Blue bridges indicate the stapled amino acid residues. […] Yields, purity, and MALDI-TOF data are shown for the stapled peptides and negative control. B, CD analysis of 30–50 μM peptides at 20 °C. For proteolytic stability studies, the peptide solution (55.5 μM for trypsin and chymotrypsin and 11.1 μM for serum) was incubated in the presence of 0.55 μg/ml trypsin from porcine pancreas (E), α-chymotrypsin (F), or mouse serum (G) at 37 °C for the indicated times (indicated on the x axis). Data are mean ± S.E. (error bars) (n = 3) percentage of intact peptide normalized to t = 0. Proteolytic half-lives and putative cleavage sites (predicted using the Expasy bioinformatics server's model with a 50% probability of cleavage) are indicated at the bottom of each panel. Positive correlation between helicity and half-life in trypsin/chymotrypsin (C) or serum (D) was determined by two-tailed Pearson's correlation test. TEXT PRINTED IN THE PICTURE: (B) TM7-TAT: Ellipticity (%): 3.4 | (B) TM6-TAT: Ellipticity (%): 18.3 | (B) TM5-TAT: Ellipticity (%): 20.9 | (B) 8: Ellipticity (%): 58.3 | (B) 9: Ellipticity (%): 46.4 | (B) 10: Ellipticity (%): 36.8 | (B) 11: Ellipticity (%): 46 | (E) TM7-TAT: Half-life (min): 21; #Cleavage sites: 8 | (E) TM6-TAT: Half-life (min): 40; #Cleavage sites: 7 | (E) TM5-TAT: Half-life (min): 33; #Cleavage sites: 8 | (E) 8: Half-life (min): 307; #Cleavage sites: 0 | (E) 9: Half-life (min): 178; #Cleavage sites: 0 | (E) 10: Half-life (min): 75; #Cleavage sites: 6 | (E) 11: Half-life (min): 84; #Cleavage sites: 0 | (F) TM7-TAT: Half-life (min): 22; #Cleavage sites: 6 | (F) TM6-TAT: Half-life (min): 32; #Cleavage sites: 7 | (F) TM5-TAT: Half-life (min): 28; #Cleavage sites: 7 | (F) 8: Half-life (min): 425; #Cleavage sites: 4 | (F) 9: Half-life (min): 198; #Cleavage sites: 3 | (F) 10: Half-life (min): 63; #Cleavage sites: 2 | (F) 11: Half-life (min): 79; #Cleavage sites: 4 | (G) TM7-TAT: Half-life (hours): 0.46 | (G) TM6-TAT: Half-life (hours): 0.55 | (G) TM5-TAT: Half-life (hours): 0.81 | (G) 8: Half-life (hours): ≥18 | (G) 9: Half-life (hours): 14.7 | (G) 10: Half-life (hours): 11.7 | (G) 11: Half-life (hours): 5.3 DOUBTS OF THE COPYIST ABOUT THIS PICTURE: Panel A table (Yield, Rt, Purity, [M+H+] calc., [M+H+] Peak Found for 7-11) left out as synthesis and mass-spectrum characterisation data; uncertain whether [M+H+] calc. should count as a molecular weight
(§2) Dose–response curves were fitted using a four-parameter logistic nonlinear regression mode. Peptide stability data were fitted using a nonlinear regression mode for dissociation kinetics. All statistical tests, curve fitting, and graphing were performed using GraphPad Prism 8 (GraphPad Software, La Jolla, CA).
To 100 μl of peptide solution (100 μM, dissolved in ammonium bicarbonate buffer, pH 7.5), 60 μl of ammonium bicarbonate buffer (pH 7.5) was added, together with 20 μl of temperature-equilibrated (37 ± 1 °C) trypsin (5 μg/ml) from porcine pancreas (Sigma, 13,000–20,000 BAEE units/mg of protein). Peptides were incubated for 15, 30, 60, 120, 240, and 480 min, and then MeOH (HPLC Grade) + 0.05% TFA was added. The samples were then centrifuged (15,000 rpm), and the supernatant was analyzed, using Fmoc-Gly (10 μl, 0.2 mM) as an internal standard. The digestion at each time point was repeated three times to give the average values along with S.D. The amount of intact peptide that remained in the mixture was quantified by RP-HPLC. The experiment was repeated twice on different days.

[2] = biological target: T2, α-chymotrypsin from bovine pancreas (Bos taurus, UniProt P00766, DEL14-15/DEL147-148); assay: Proteolytic stability against chymotrypsin; type: in vitro ADME; details: for half-life at 55.5 μM: cattle, isolated enzyme chymotrypsin
T2 construct: purchased Sigma Type II; host or cells: bovine pancreas
Protocol: as §1, §2
To 100 μl of peptide solution (100 μM, dissolved in ammonium bicarbonate buffer, pH 7.5), 60 μl of ammonium bicarbonate buffer (pH 7.5) was added, together with 20 μl of temperature-equilibrated (37 ± 1 °C) α-chymotrypsin (5 μg/ml) from bovine pancreas (Sigma, Type II, activity > 40 units/mg protein). Peptides were incubated for 15, 30, 60, 120, 240, and 480 min, and then MeOH (HPLC grade) + 0.05% TFA was added. The samples were then centrifuged (15,000 rpm), and supernatant was analyzed in a similar manner as described above. The experiment was repeated twice on different days.

5-HT2AR–CB1R heteromers = biological target: T3, 5-HT2AR–CB1R heteromers (Homo sapiens, UniProt P28223); assay: NanoBiT BiLC peptide screening assay (LgBiT–CB1R + SmBiT–5-HT2AR); type: cell-based; details: HEK293 cells transiently expressing LgBiT–CB1R and SmBiT–5-HT2AR, preincubated 1 h with 4 μM peptide, luminescence normalized to vehicle, n ≥ 5
T3 construct: expressed in transfected cells; host or cells: HEK293 (ATCC CRL-1573), transient reverse transfection
T3 sequence (P28223 2-471, one chain of several): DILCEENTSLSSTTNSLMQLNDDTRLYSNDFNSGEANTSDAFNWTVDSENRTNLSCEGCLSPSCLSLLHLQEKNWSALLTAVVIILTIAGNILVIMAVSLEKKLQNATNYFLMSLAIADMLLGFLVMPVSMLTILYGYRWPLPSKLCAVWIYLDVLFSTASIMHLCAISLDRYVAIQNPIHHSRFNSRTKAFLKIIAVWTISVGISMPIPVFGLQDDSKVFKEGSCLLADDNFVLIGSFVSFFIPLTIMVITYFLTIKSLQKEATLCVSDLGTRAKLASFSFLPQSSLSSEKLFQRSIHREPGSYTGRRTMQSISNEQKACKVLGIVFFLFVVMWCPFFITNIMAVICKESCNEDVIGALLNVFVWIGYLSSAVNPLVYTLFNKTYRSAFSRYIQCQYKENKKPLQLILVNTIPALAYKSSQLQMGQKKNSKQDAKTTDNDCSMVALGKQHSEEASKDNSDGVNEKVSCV
Protocol: Figure 5. Identification of a small-stapled TM peptide disrupting 5-HT2AR–CB1R heteromers. A, schematic representation of the NanoBiT assay using N-terminally labeled constructs. In B, HEK293 cells transiently expressing the LgBT–CB1R and SmBiT–5-HT2AR complementary pairs were preincubated for 1 h at 37 °C with the indicated peptides (4 μM) or vehicle prior to luminescence recording. Data are mean RLU ± S.E. (error bars) (n ≥ 5) percentage of luminescence normalized to vehicle-treated cells. Statistical significance was evaluated by one-way ANOVA followed by Bonferroni post hoc tests, indicating significant differences over vehicle-treated cells (***, p ≤ 0.001; ****, p ≤ 0.0001) and for peptide 10 over its related peptides (####, p ≤ 0.0001). Peptide 10 potency (C) was evaluated as in A over increasing peptide concentrations (bottom) (n = 3). Alternatively, to assess the kinetics of the peptide 10–driven heteromer disruption (D), prior to the administration of the peptide, the cells were preincubated with substrate, and the luminescence was recorded over the following 30 min. Data are mean RLU ± S.E. (n ≥ 3) percentage of luminescence normalized to vehicle-treated cells.
To assess GPCR protein–protein interactions with the NanoBiT technology, HEK293 cells (50,000 cells/well) were seeded in poly-D-lysine–coated white clear bottom 96-well plates and reverse-transfected (see above) with the plasmids encoding the complementary NanoBiT hemiprotein fragments. For orientation screenings, cells were transfected with two different concentrations (50 and 100 ng/well) of each receptor alone or in combination with the investigated partner (see figure legends) in the presence of empty vector (pcDNA3.1(+)) to normalize the total amount of DNA/well. For studies in the presence of increasing nontagged receptor competitors, 100 ng of each receptor pair (CB1R LgBiT + CB1R SmBiT, 5-HT2AR LgBiT + 5-HT2AR SmBiT, and 5-HT2AR LgBiT + CB1R SmBiT) were co-transfected with increasing concentrations of the different nontagged constructs (from 0 to 300 ng/well), and the total amounts of DNA/well were normalized with empty vector (pcDNA3.1(+)). For the screening of stapled peptides, 50 ng/well of both LgBiT CB1R and SmBiT 5-HT2AR were reverse-transfected as detailed previously. 24 h post- transfection, the cell culture medium was removed, and the cells were starved in FBS-free DMEM for 4 h at 37 °C in a 5% CO2 humidified atmosphere. The cell culture medium was replaced by 100 μl of NanoBiT assay buffer (same as for cAMP measurements), and the plates were pre-equilibrated for 1 h at RT in the dark. When peptide pretreatment was required, peptides were added over this pre-equilibration step, except when studying inhibition kinetics, when the peptides were administered immediately after the baseline luminescence recording. 25 μl/well of a 5× solution of the Nano-Glo® live cell reagent containing the cell-permeable furimazine substrate dissolved in Nano-Glo® LCS dilution buffer were added, and the luminescence was immediately monitored in CLARIOstar® Multimode Plate Reader (BMG Labtech) with no lens (1-s integration time/well for 1 h every minute).
as §2

Stability in mouse serum = type: in vitro ADME; details: 11.1 μM peptide, fresh nonsterile mouse serum (200 μl serum + 25 μl peptide solution, pH 7.5 buffer with 10% DMSO), 37 °C, quench 15% TCA in acetonitrile, HPLC, n = 3; read-out: Half-life (hours), mouse serum (converted)
Protocol: as §1, §2
To 200 μl of fresh nonsterile mouse serum was added 25 μl of peptide solution (100 μM, dissolved in ammonium bicarbonate buffer, pH 7.5, containing 10% DMSO), and the mixture was incubated at 37 °C. At the specified time, an aliquot of incubation mixture was withdrawn and quenched by the addition of an equal volume of 15% TCA in acetonitrile to precipitate out serum proteins over ice for 30 min. The mixture was then centrifuged at 13,500 rpm for 10 min, and the supernatant was collected and analyzed by HPLC in a similar manner as described previously. The experiment was repeated twice on different days.

Row | Structure (SMILES) | half-life at 55.5 μM ([1]; pH 7.5, Half-life (min), trypsin) | half-life at 55.5 μM ([2]; pH 7.5) | half-life in chymotrypsin as stated in text ([2]; pH 7.5) | effect on NanoBiT luminescence (heteromer disruption) (5-HT2AR–CB1R heteromers) | half-life at 55.5 μM ([1]; 55.5 μM peptide, 0.55 μg/ml trypsin from porcine pancreas, ammonium bicarbonate buffer pH 7.5, 37 °C, 15–480 min, intact peptide by RP-HPLC (Fmoc-Gly internal standard), n = 3, nonlinear regression fit, read-out: Half-life (min), trypsin) | enhancement in trypsin resistance (half-life) over control peptides ([1]; versus TM7-TAT, TM6-TAT and TM5-TAT control peptides, trypsin 0.55 μg/ml) | half-life at 55.5 μM ([2]; 55.5 μM peptide, 0.55 μg/ml α-chymotrypsin from bovine pancreas, ammonium bicarbonate buffer pH 7.5, 37 °C, 15–480 min, intact peptide by RP-HPLC, n = 3, nonlinear regression fit, read-out: Half-life (min), α-chymotrypsin) | chymotrypsin resistance improvement over full-length TM-TAT peptides ([2]; versus full-length TM7-TAT, TM6-TAT and TM5-TAT) | half-life at 11.1 μM (Stability in mouse serum)
1 | CCCC[C@@H]1NC(=O)[C@H](Cc2ccc(O)cc2)NC(=O)[C@@](C)(NC(=O)[C@H](Cc2ccc(O)cc2)NC(=O)[C@@H](N)C(C)C)CCC/C=C\CCC[C@@](C)(C(=O)N[C@H](C(=O)N[C@@H](CC(C)C)C(=O)N[C@@H](Cc2c[nH]c3ccccc23)C(N)=O)[C@@H](C)CC)NC1=O [Peptide 9] (H-VY[S5]Y[Nle][S5]ILW-NH2; staple (Z) 3-6) | 178 min | 198 min | 5 to 6 h | neither the version lacking the TAT amino acid sequence, compound 9, nor the nonstaple, compound 11, peptides induced any change | – | – | – | – | –
2 | CCCC[C@@H]1NC(=O)[C@H](Cc2ccc(O)cc2)NC(=O)[C@@](C)(NC(=O)[C@H](Cc2ccc(O)cc2)NC(=O)[C@@H](N)C(C)C)CCCC=CCCC[C@@](C)(C(=O)N[C@@H](CC(C)C)C(=O)N[C@@H](Cc2c[nH]c3ccccc23)C(=O)NCC(=O)N[C@@H](CCCNC(=N)N)C(=O)N[C@@H](CCCCN)C(=O)N[C@@H](CCCCN)C(=O)N[C@@H](CCCNC(=N)N)C(=O)N[C@@H](CCCNC(=N)N)C(=O)N[C@@H](CCC(N)=O)C(=O)N[C@@H](CCCNC(=N)N)C(=O)N[C@@H](CCCNC(=N)N)C(=O)N[C@@H](CCCNC(=N)N)C(N)=O)NC(=O)[C@H](Cc2ccc(O)cc2)NC1=O [Peptide 10] (H-VY[S5]Y[Nle]Y[S5]LWGRKKRRQRRR-NH2; staple 3-7) | – | – | – | – | 75 min | 2–3 fold | 63 min | ~2 fold | 11.7 h

Reference: article PMC6851324, “Design and development of stapled transmembrane peptides that disrupt the activity of G-protein–coupled receptor oligomers” (The Journal of Biological Chemistry, 2019)
